Values after ≈ are worked out from the molar mass of the structure shown. Active and inactive are the calls of the source. No cut-off for these calls is given here.
How the values were obtained:
[1] = system: HUVEC; assay: Pro-angiogenic activity in HUVEC assessed as increase in tubular network formation at 0.1 ng/ml preincubated for 30 mins followed by ZM 323881 HCl addition and measured after 22 hrs by phase-contrast image analysis; format: functional, cell-based; details: Homo sapiens
[2] = system: HUVEC; assay: Pro-angiogenic activity in HUVEC assessed as increase in cell proliferation after 96 hrs by DAPI staining-based spectrofluorometric analysis; format: functional; details: Homo sapiens
[3] = system: HUVEC; assay: Pro-angiogenic activity in HUVEC assessed as increase in cell proliferation at 2500 ng/ml after 24 to 72 hrs by DAPI staining-based spectrofluorometric analysis relative to control; format: functional, Homo sapiens
[4] = system: HUVEC; assay: Pro-angiogenic activity in HUVEC assessed as increase in cell proliferation at 2500 ng/ml after 96 hrs by DAPI staining-based spectrofluorometric analysis relative to control; format: functional, Homo sapiens
[5] = system: HUVEC; assay: Pro-angiogenic activity in HUVEC assessed as increase in meshes formation after 22 hrs by phase-contrast image analysis; format: functional, cell-based; details: Homo sapiens
[6] = system: HUVEC; assay: Effect on cell morphology in HUVEC at 1 to 2500 ng/ml after 24 to 96 hrs by DAPI staining-based spectrofluorometric analysis; format: functional; details: Homo sapiens
[7] = system: HUVEC; assay: Pro-angiogenic activity in HUVEC assessed as increase in meshes formation at 0.1 to 10 ng/ml after 22 hrs by phase-contrast image analysis; format: functional, cell-based; details: Homo sapiens
[8] = system: HUVEC; assay: […] activity in HUVEC assessed as wound closure at 100 ng/ml after 24 hrs by phase-contrast microscopic analysis; format: functional, cell-based; details: Homo sapiens
[9] = system: HUVEC; assay: Pro-angiogenic activity in HUVEC assessed as increase in tubular network formation at 0.1 ng/ml after 22 hrs by phase-contrast image analysis; format: functional, cell-based; details: Homo sapiens

## O=C(OCC1=C[C@@H](O)[C@@H]2C=CO[C@@H](O[C@@H]3O[C@H](CO)[C@@H](O)[C@H](O)[C@H]3O)[C@H]12)c1ccc(O)cc1 [AGNUSIDE]
[1]
  Activity: Active
[2]
  EC50: 1.38 µg/mL (≈ 2.95 µM)
[3]
  Activity: 20 - 30%
[4]
  Activity: <=56%
[5]
  Activity: Dose-dependent effect
[6]
  Activity: inactive
[7]
  Activity: inactive
[8]
  Activity: Active
[9]
  Activity: Active

— ChEMBL document CHEMBL4382213, “Identification and characterization of agnuside, a natural proangiogenic small molecule” (Eur J Med Chem, 2018)
